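GI50 marks 50% less growth. The concentration for full growth arrest is given as TGI.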
Legend:
Assay in all cases: inhibition of tumour cell growth, NCI panel, 384-well format
OVCAR-8 ovarian = tested on: OVCAR-8 ovarian
NCI-H226 lung = tested on: NCI-H226 lung
SF-268 CNS = tested on: SF-268 CNS
UACC-62 melanoma = tested on: UACC-62 melanoma
ACHN renal = tested on: ACHN renal
A549 NSCLC = tested on: A549 NSCLC
SK-MEL-2 melanoma = tested on: SK-MEL-2 melanoma
SK-OV-3 ovarian = tested on: SK-OV-3 ovarian
MCF7 breast = tested on: MCF7 breast
MDA-MB-231 breast = tested on: MDA-MB-231 breast
SN12C renal = tested on: SN12C renal
OVCAR-3 ovarian = tested on: OVCAR-3 ovarian
HOP-62 NSCLC = tested on: HOP-62 NSCLC
KM12 colon = tested on: KM12 colon
CCRF-CEM leukemia = tested on: CCRF-CEM leukemia
OVCAR-4 ovarian = tested on: OVCAR-4 ovarian
OVCAR-5 ovarian = tested on: OVCAR-5 ovarian
U251 glioblastoma = tested on: U251 glioblastoma
HS 578T breast = tested on: HS 578T breast
HCT-15 colon = tested on: HCT-15 colon
HCT-116 colon = tested on: HCT-116 colon
SF-295 CNS = tested on: SF-295 CNS
CAKI-1 renal = tested on: CAKI-1 renal
MDA-MB-435 melanoma = tested on: MDA-MB-435 melanoma
NCI-H322M lung = tested on: NCI-H322M lung
SNB-19 CNS = tested on: SNB-19 CNS
MOLT-4 leukemia = tested on: MOLT-4 leukemia
MDA-MB-468 breast = tested on: MDA-MB-468 breast
UACC-257 melanoma = tested on: UACC-257 melanoma
SNB-75 CNS = tested on: SNB-75 CNS
NCI-H522 lung = tested on: NCI-H522 lung
HOP-92 NSCLC = tested on: HOP-92 NSCLC
NCI/ADR-RES ovarian = tested on: NCI/ADR-RES ovarian
UO-31 renal = tested on: UO-31 renal
SF-539 CNS = tested on: SF-539 CNS
786-0 renal = tested on: 786-0 renal
MALME-3M melanoma = tested on: MALME-3M melanoma
PC-3 prostate = tested on: PC-3 prostate
BT-549 breast = tested on: BT-549 breast
HL-60(TB) leukemia = tested on: HL-60(TB) leukemia
RPMI-8226 leukemia = tested on: RPMI-8226 leukemia
A498 renal = tested on: A498 renal
T-47D breast = tested on: T-47D breast
SK-MEL-28 melanoma = tested on: SK-MEL-28 melanoma
HT29 colon = tested on: HT29 colon
M14 melanoma = tested on: M14 melanoma
K-562 leukemia = tested on: K-562 leukemia
NCI-H23 lung = tested on: NCI-H23 lung
SW-620 colon = tested on: SW-620 colon
DU-145 prostate = tested on: DU-145 prostate
IGROV1 ovarian = tested on: IGROV1 ovarian
RXF 393 renal = tested on: RXF 393 renal
TK-10 renal = tested on: TK-10 renal

Compound CCCCC(=O)OCC(=O)[C@]1(O)Cc2c(O)c3c(c(O)c2[C@@H](OC2CC(NC(=O)C(F)(F)F)C(O)C(C)O2)C1)C(=O)c1c(OC)cccc1C3=O (some centres undefined) has a GI50 (OVCAR-8 ovarian) of 73.3 nM, a TGI (OVCAR-8 ovarian) of 1810 nM and a GI50 (NCI-H226 lung) of 122 nM. The TGI (NCI-H226 lung) was 1190 nM, the GI50 (SF-268 CNS) was 70.2 nM and the TGI (SF-268 CNS) was 2110 nM. It also gave a GI50 (UACC-62 melanoma) of 50.6 nM, a TGI (UACC-62 melanoma) of 1020 nM and a GI50 (ACHN renal) of 213 nM. It also gave a TGI (ACHN renal) of 1890 nM, a GI50 (A549 NSCLC) of 84.4 nM and a TGI (A549 NSCLC) of 1780 nM. The GI50 (SK-MEL-2 melanoma) was 372 nM, the TGI (SK-MEL-2 melanoma) was 991 nM and the GI50 (SK-OV-3 ovarian) was 107 nM. It also gave a TGI (SK-OV-3 ovarian) of 5440 nM, a GI50 (MCF7 breast) of 84.9 nM and a TGI (MCF7 breast) of 7560 nM. For the same compound, the GI50 (MDA-MB-231 breast) was 126 nM, the TGI (MDA-MB-231 breast) was 2100 nM and the GI50 (SN12C renal) was 60.6 nM. For the same compound, the TGI (SN12C renal) was 1370 nM, the GI50 (OVCAR-3 ovarian) was 1200 nM and the TGI (OVCAR-3 ovarian) was 44500 nM. The GI50 (HOP-62 NSCLC) was 42.1 nM, the TGI (HOP-62 NSCLC) was 327 nM and the GI50 (KM12 colon) was 99.6 nM. It also gave a TGI (KM12 colon) of 1700 nM, a GI50 (CCRF-CEM leukemia) of 17.3 nM and a TGI (CCRF-CEM leukemia) of 32.3 nM. For the same compound, the GI50 (OVCAR-4 ovarian) was 1680 nM, the TGI (OVCAR-4 ovarian) was 7010 nM and the GI50 (OVCAR-5 ovarian) was 1240 nM. The TGI (OVCAR-5 ovarian) was 5620 nM, the GI50 (U251 glioblastoma) was 45 nM and the TGI (U251 glioblastoma) was 10400 nM. The GI50 (HS 578T breast) was 122 nM, the TGI (HS 578T breast) was 1870 nM and the GI50 (HCT-15 colon) was 98.5 nM. It also gave a TGI (HCT-15 colon) of 1620 nM, a GI50 (HCT-116 colon) of 49 nM and a TGI (HCT-116 colon) of 34000 nM. For the same compound, the GI50 (SF-295 CNS) was 53.6 nM, the TGI (SF-295 CNS) was 1460 nM and the GI50 (CAKI-1 renal) was 128 nM. The TGI (CAKI-1 renal) was 2530 nM, the GI50 (MDA-MB-435 melanoma) was 738 nM and the TGI (MDA-MB-435 melanoma) was 2630 nM. For the same compound, the GI50 (NCI-H322M lung) was 2420 nM, the TGI (NCI-H322M lung) was 15200 nM and the GI50 (SNB-19 CNS) was 64.8 nM. It also gave a TGI (SNB-19 CNS) of 11900 nM, a TGI (MOLT-4 leukemia) of 10.4 nM and a GI50 (MDA-MB-468 breast) of 29.9 nM. The TGI (MDA-MB-468 breast) was 85.9 nM, the GI50 (UACC-257 melanoma) was 404 nM and the TGI (UACC-257 melanoma) was 1740 nM. The GI50 (SNB-75 CNS) was 142 nM, the TGI (SNB-75 CNS) was 1290 nM and the GI50 (NCI-H522 lung) was 101 nM. It also gave a TGI (NCI-H522 lung) of 1000 nM, a GI50 (HOP-92 NSCLC) of 142 nM and a TGI (HOP-92 NSCLC) of 19200 nM. For the same compound, the GI50 (NCI/ADR-RES ovarian) was 7460 nM, the TGI (NCI/ADR-RES ovarian) was 44100 nM and the GI50 (UO-31 renal) was 1480 nM. It also gave a TGI (UO-31 renal) of 2990 nM, a GI50 (SF-539 CNS) of 73.1 nM and a TGI (SF-539 CNS) of 1340 nM. The GI50 ([…]-0 renal) was 64.2 nM, the TGI (786-0 renal) was 1980 nM and the GI50 (MALME-3M melanoma) was 188 nM. The TGI (MALME-3M melanoma) was 1660 nM, the GI50 (PC-3 prostate) was 1020 nM and the TGI (PC-3 prostate) was 4020 nM. The GI50 (BT-549 breast) was 73.8 nM, the TGI (BT-549 breast) was 1440 nM and the TGI (HL-60(TB) leukemia) was 16.6 nM. The GI50 (RPMI-8226 leukemia) was 12.9 nM, the TGI (RPMI-8226 leukemia) was 36 nM and the GI50 (A498 renal) was 87.5 nM. For the same compound, the TGI (A498 renal) was 2870 nM, the GI50 (T-47D breast) was 96.2 nM and the TGI (T-47D breast) was 2570 nM. It also gave a GI50 (SK-MEL-28 melanoma) of 468 nM, a TGI (SK-MEL-28 melanoma) of 2020 nM and a GI50 (HT29 colon) of 303 nM. It also gave a TGI (HT29 colon) of 2290 nM, a GI50 (M14 melanoma) of 73.2 nM and a TGI (M14 melanoma) of 1380 nM. It also gave a GI50 (K-562 leukemia) of 104 nM, a TGI (K-562 leukemia) of 1760 nM and a GI50 (NCI-H23 lung) of 60.3 nM. It also gave a TGI (NCI-H23 lung) of 1150 nM, a GI50 (SW-620 colon) of 75.3 nM and a TGI (SW-620 colon) of 16200 nM. It also gave a GI50 (DU-145 prostate) of 37.1 nM, a TGI (DU-145 prostate) of 1000 nM and a GI50 (IGROV1 ovarian) of 1110 nM. It also gave a TGI (IGROV1 ovarian) of 3860 nM, a GI50 (RXF 393 renal) of 320 nM and a TGI (RXF 393 renal) of 1940 nM. For the same compound, the GI50 (TK-10 renal) was 997 nM and the TGI (TK-10 renal) was 5090 nM.

Reference: PubChem BioAssay (NCI)
